Results reported in patent US8394776B2, “Use of ursolic acid saponin,oleanolic acid saponin in preparation of increasing leucocytes and/or platelet medicine” (Chengdu Di'Ao Jiuhong Pharmaceutical Factor, priority 2007, dated 2013).

Assays:
[1] = tested on: bone marrow mononuclear cell (BMMNC); test: Monocytic proliferation in bone marrow of mice cultured in vitro (SRB method); type: cell-based, KunMing mice; conditions: 1 μg/ml; cultured 5 days; versus blank control
Excerpt: 15-20 KunMing mice (purchased from Laboratory Animal Center of Zhengzhou University, Henan) of either sex were killed by cervical vertebral dislocation. Bilateral thighbones were isolated and caput femoris was cut off. The marrow was washed repeatedly with serum-free RPMI1640 (Gibco Corp.), the wash solution containing marrow cells was collected, sucked and blew repeatedly with a pipette to make the cells disperse. After standing for a moment, the supernatant was sucked up and centrifugated at 100 g for 3 min to collect the cell pellet. The cells were resuspended in a culture media and brought to a volume of 5 ml. The cell suspension was added to the upper layer of a centrifugal tube containing 5 ml of a lymphocyte separation medium of mice and centrifugated at 400 g for 30 min. The milk-white bone marrow mononuclear cell (BMMNC) layer in the middle of the interface was collected and washed with serum-free medium RPMI1640 for three times to obtain a BMMNC suspension, which was inoculated into a 96-well plate at forty thousand per well after counting. Positive drugs rhG-CSF (recombinant granulocyte colony-stimulating factor, manufactured by QI LU Pharmaceutical Co., LTD., Shandong) or test samples of different concentrations were added, and meanwhile a blank control group without drug was established. They were cultured in a 5% CO2 incubator at 37 for 5 days. Cell proliferation was measured by a conventional SRB (Sigma) method in which OD at 490 nm was measured after being dyed with SRB. The growth rates of cell proliferation after drug treatment were calculated (Growth rate of cell proliferation=experimental group-blank control group/blank control group*100%).

leukocytes (WBC) = test: Cyclophosphamide-induced leukopenia in mice: leukocytes (WBC); type: in vivo, Kunming mice; conditions: Experimental Example 2, 0.8 mg/kg; for leukocytes (WBC), Day1 after modeling: CY 100 mg/kg x 3 days
Procedure: Further, in vivo experiments were carried out on the compounds involved in the present invention using animal models of cyclophosphamide-induced leukopenia in mice. Experimental methods are briefed as follows: Healthy Kunming mice, of which half were male and the other half were female, were divided into groups, each group incuding 18 mice, and those mice weighing 18-22 g were selected and divided into groups randomly according to their body weights. Each group was given a different drug, wherein the negative control group and model control group were given physiological saline of the same volume, and the positive control group was treated with granulocyte colony-stimulating factors 40 μg/kg through subcutaneous injection (injection volume: 0.1 ml/10 g). After administration for 3 days, except the negative control group, other treatment groups were treated with 100 mg/kg cyclophosphamide (CY) through lumbar injection once a day for three days to cause a decrease of leukocytes in mice. A drop of blood (20 μl) was taken from posterior orbital venous plexus to detect the hemogram to observe the situation of leukocytes and platelets on day 1, day 3 and/or day 5 after the final lumbar injection of cyclophosphamide (i.e day 1, day 3 and/or day 5 after modeling) (Note: Each treatment group was administrated incessantly). The mice were killed on day 5 after the final lumbar injection of cyclophosphamide (i.e day 5 after modeling), and the leukocytes (WBC) and platelets (PLT) of the hemogram index were counted.
This experiment mainly studies the effect of G-1, G-6 and G-8 of ursolic acid saponin in increasing leukocytes, and compares the therapeutic effects of aglycon of ursolic acid and oleanolic acid and of the compound G-22 which has been disclosed by a patent.
The purpose of this experiment is to study the effect of G-1, G-3, G-11 and G-12 of ursolic acid saponin and oleanolic acid saponin in increasing platelets, and to observe whether G-11 and G-12 of oleanolic acid saponin have an effect in increasing leukocytes.

leucocytes = conditions: administrated through abdominal cavity; 25, 50 and 100 mg/kg; effect obvious at high dose; cited from earlier work

Row | SMILES | Growth Rate of Proliferation %, 1 μg/ml [1] [%] | effect in increasing leukocytes (in words) (leukocytes (WBC)) | leukocytes (WBC), Day 3 after modeling (leukocytes (WBC)) | leukocytes (WBC), Day 5 after modeling (leukocytes (WBC)) | leukocytes (WBC), Day1 after modeling (leukocytes (WBC)) | effect in increasing leucocytes (in words) (leucocytes)
1 | CC1(C)CC[C@]2(C(=O)O)CC[C@]3(C)C(=CC[C@@H]4[C@@]5(C)CC[C@H](O)C(C)(C)[C@@H]5CC[C@]43C)[C@@H]2C1 [Sample G-20, oleanolic acid] | 4.5 | no obvious effect in increasing leukocytes | 3.88 ± 2.01 | 7.00 ± 3.22 | 0.99 ± 0.40 | effective in increasing leucocytes
2 | C[C@H]1[C@H](C)CC[C@]2(C(=O)O)CC[C@]3(C)C(=CC[C@@H]4[C@@]5(C)CC[C@H](O)C(C)(C)[C@@H]5CC[C@]43C)[C@H]12 [Sample G-21, ursolic acid] | 7.9 | no obvious effect in increasing leukocytes | 3.94 ± 1.73 | 7.07 ± 3.14 | 1.01 ± 0.47 | effective in increasing leucocytes
